Read-outs that look alike come from different tables or passages of the source.

For one data set, the system named is rats. Particulars: comparison compound; cited from earlier work.
Data set [1] concerns Chaetomium globosum Kunze and Aspergillus niger. Description: mould resistance of soap-wrapping paper. Conditions: 0.5% by weight of paper added to pulp. The method, then: (§1) Based on the weight of the paper (90 to 100 g/m^2) 0.5% of A/B=6/1 is homogeneously mixed under a pulp (density 1%, pH value 4.8) having the following composition:
The mould resistance and the antimicrobial activity of the soap-wrapping paper obtained in this manner is tested in the following way:
Circular paper test specimens (diameter 4 cm) are placed in a nutrient medium in Petri dishes, the medium having previously been infested with the test fungi Chaetomium globosum Kunze and Aspergillus niger.

A further data set deals with fungus. Description: paper production: pulp feeding system, losses of active compound, effluent and discharged air. Conditions: 0.5% by weight of paper added to the pulp. As to the method:
as §1
If, however, as is customary, owing to the lack up until now of usable alternatives, 0.5% of sodium pentachlorophenolate (related to the weight of the paper) is added to the pulp, losses of active compound amounting to more than 50% occur (approx. 25% are found in the effluent and approx. 25% in the outgoing air).

The test system of a further data set is Trichoderma viride. Description: minimum inhibitory concentration (MIC) in agar culture media; synergism by Kull et al. Conditions: for X (synergism index by Kull et al): X=1 additivity, X>1 antagonism, X<1 synergism. The class given is cell-based. The method, then: (§2) The MIC values of A and B are compared with the MIC values of mixtures A/B.
(§3) The synergism is determined according to the method described by Kull et al (F. C. Kull, P. C. Eismann, H. D. Sylvestrowicz, R. L. Mayer, Applied Microbiol. 9, 538 to 541, 1961). The following symbols apply here: [formula] X=1 denotes additivity X>1 denotes antagonism
(§4) Qa =concentration of compound A, which represents the MIC
(§5) Qb =concentration of compound B, which represents the MIC
(§6) QA =the amount of compound A in the concentration of A/B, which prevents the growth of microbes
(§7) QB =the amount of compound B in the concentration of A/B which prevents the growth of microbes.

The subject of the next data set is Pullularia pullulans. Described as above. The class given is cell-based. Particulars: for X (synergism index by Kull et al): X=1 additivity, X>1 antagonism, X<1 synergism. The method, then: as §2, §3, §4, §5, §6, §7
The test system of a further data set is Chaetomium globosum. The data set is described as above. The data set is classed as cell-based. Conditions: for X (synergism index by Kull et al): X=1 additivity, X>1 antagonism, X<1 synergism. As to the method: as §2, §3, §4, §5, §6, §7
Another data set concerns Aspergillus niger. Described as above. The data set is classed as cell-based. Conditions: for X (synergism index by Kull et al): X=1 additivity, X>1 antagonism, X<1 synergism. As to the method:
as §2, §3, §4, §5, §6, §7

A further data set concerns Coniophora cerebella. Described as above. The data set is classed as cell-based. Particulars: for X (synergism index by Kull et al): X=1 additivity, X>1 antagonism, X<1 synergism. As to the method:
as §2, §3, §4, §5, §6, §7

Another data set deals with Alternaria tenuis. Described as above. The data set is classed as cell-based. Particulars: for X (synergism index by Kull et al): X=1 additivity, X>1 antagonism, X<1 synergism. The method, then:
as §2, §3, §4, §5, §6, §7

The conditions of data set [2]: as a formaldehyde depot substance; cited from earlier work.
The mark [3] stands for this setting: A differs between Example 1 and Example 6.

For `[Na+].[O-]c1c(Cl)c(Cl)c(Cl)c(Cl)c1Cl` [sodium pentachlorophenolate], the LD50 oral in the data set with rats is on record as 270 mg/kg. In [1], the mould-resistance of paper entry is “poor mould-resistance”. Moreover, in the data set with fungus, the discharged air problems result is given as “disagreable odours, mucosal irritation” and the effluent toxicity result is “the effluent is toxic to fish”.

Turning to `Oc1ccccc1-c1ccccc1` [A/B 100/0 (Example 6), 2-hydroxy-diphenyl], the “QA (amount of compound A in the concentration of A/B which prevents the growth of microbes)” value came out at 75 in the data set on Trichoderma viride (setting [3]); 50 in the data set on Pullularia pullulans (setting [3]); 50 in the data set with Chaetomium globosum (setting [3]); 50 in the data set with Aspergillus niger (setting [3]); 50 with Coniophora cerebella (setting [3]). Also, the MIC with Trichoderma viride (Trichoderma viride, read-out: Qa (concentration of compound A, which represents the MIC)) stood at 75 µg/mL; with Trichoderma viride (agar culture media), 75 µg/mL; in the data set with Pullularia pullulans (agar culture media), 50 µg/mL; in the data set with Pullularia pullulans (read-out: Qa (concentration of compound A, which represents the MIC)) it was 50 µg/mL; in the data set with Chaetomium globosum (Chaetomium globosum, read-out: Qa (concentration of compound A, which represents the MIC)) it was 50 µg/mL; in the data set with Chaetomium globosum (agar culture media), 50 µg/mL. In addition, the MIC worked out at 50 µg/mL with Aspergillus niger (Aspergillus niger, read-out: Qa (concentration of compound A, which represents the MIC)); 50 µg/mL in the data set on Aspergillus niger (agar culture media); 50 µg/mL with Coniophora cerebella (Coniophora cerebella, read-out: Qa (concentration of compound A, which represents the MIC)); 50 µg/mL in the data set on Coniophora cerebella (agar culture media). The “X (synergism index by Kull et al)” value in the data set on Trichoderma viride, in the data set with Pullularia pullulans, in the data set with Chaetomium globosum, in the data set with Aspergillus niger and in the data set on Coniophora cerebella was 1 in each case.

`COC(=O)Nc1nc2ccccc2[nH]1` [B, benzimidazolyl-methyl-carbamate]: the “QB (amount of compound B in the concentration of A/B which prevents the growth of microbes)” value in the data set with Trichoderma viride is listed as 2,5; in the data set on Pullularia pullulans, 0,25; in the data set with Chaetomium globosum it was 0,4; with Aspergillus niger it was 2,5; with Alternaria tenuis, 5000; with Coniophora cerebella, 2000. The MIC in the data set on Trichoderma viride (Trichoderma viride, read-out: Qb (concentration of compound B, which represents the MIC)) was 2.5 µg/mL; in the data set on Trichoderma viride (agar culture media), 2,5 mg/l; with Pullularia pullulans (agar culture media) it was 0,25 mg/l; in the data set on Pullularia pullulans (read-out: Qb (concentration of compound B, which represents the MIC)), 0.25 µg/mL; in the data set with Chaetomium globosum (Chaetomium globosum, read-out: Qb (concentration of compound B, which represents the MIC)), 0.4 µg/mL; with Chaetomium globosum (agar culture media) it was 0,4 mg/l. In addition, the MIC with Aspergillus niger (Aspergillus niger, read-out: Qb (concentration of compound B, which represents the MIC)) is 2.5 µg/mL; with Aspergillus niger (agar culture media), 2,5 mg/l; in the data set with Alternaria tenuis (Alternaria alternata, read-out: Qb (concentration of compound B, which represents the MIC)), 5000 µg/mL; in the data set with Alternaria tenuis (agar culture media) it was 5000 µg/mL; in the data set with Coniophora cerebella (Coniophora cerebella, read-out: Qb (concentration of compound B, which represents the MIC)), 2000 µg/mL; in the data set on Coniophora cerebella (agar culture media) it was 2000 µg/mL. For the same compound, the “X (synergism index by Kull et al)” value in the data set on Trichoderma viride, in the data set on Pullularia pullulans, in the data set on Chaetomium globosum, in the data set with Aspergillus niger, in the data set with Alternaria tenuis and with Coniophora cerebella was 1 in each case.

Turning to `Oc1ccc(Cl)cc1Cc1cc(Cl)ccc1O` [A/B 100/0 (Example 1), (2,2'-dihydroxy-5,5'-dichloro)-diphenyl-methane], the “QA (amount of compound A in the concentration of A/B which prevents the growth of microbes)” value with Trichoderma viride (setting [3]) was 50; in the data set with Pullularia pullulans (setting [3]), 20; in the data set on Chaetomium globosum (setting [3]), 50; in the data set with Aspergillus niger (setting [3]), 20; with Alternaria tenuis, 20; with Coniophora cerebella (setting [3]), 10. Besides, the MIC with Trichoderma viride (Trichoderma viride, A differs between Example 1 and Example 6, read-out: Qa (concentration of compound A, which represents the MIC)) was 50 µg/mL; with Trichoderma viride (agar culture media), 50 µg/mL; in the data set on Pullularia pullulans (A differs between Example 1 and Example 6, read-out: Qa (concentration of compound A, which represents the MIC)) it was 20 µg/mL; in the data set with Pullularia pullulans (agar culture media), 20 µg/mL; in the data set with Chaetomium globosum (Chaetomium globosum, A differs between Example 1 and Example 6, read-out: Qa (concentration of compound A, which represents the MIC)), 50 µg/mL; in the data set with Chaetomium globosum (agar culture media), 50 µg/mL. Moreover, the MIC was determined as 20 µg/mL in the data set on Aspergillus niger (Aspergillus niger, A differs between Example 1 and Example 6, read-out: Qa (concentration of compound A, which represents the MIC)); 20 µg/mL in the data set with Aspergillus niger (agar culture media); 20 µg/mL in the data set on Alternaria tenuis (Alternaria alternata, read-out: Qa (concentration of compound A, which represents the MIC)); 20 µg/mL with Alternaria tenuis (agar culture media); 10 µg/mL in the data set on Coniophora cerebella (Coniophora cerebella, A differs between Example 1 and Example 6, read-out: Qa (concentration of compound A, which represents the MIC)); 10 µg/mL in the data set with Coniophora cerebella (agar culture media). The “X (synergism index by Kull et al)” value in the data set with Trichoderma viride, in the data set with Pullularia pullulans, with Chaetomium globosum, with Aspergillus niger, in the data set with Alternaria tenuis and in the data set on Coniophora cerebella was 1 throughout.

As to `CN1CSC(=S)N(C)C1` [3,5-dimethyl-tetrahydro-1,3,5-thiadiazine-2-thione], the stability entry in data set [2] is reported as “only moderately stable”.

These data come from patent US4395274A, “Microbicidal agent and its use” (Bayer Aktiengesellschaft, priority 1979, dated 1983).
